Source: patent publication US5686466A, “Tricyclic condensed heterocyclic compounds their production and use” (priority 1993, dated 1997)
Where a name gives a salt, the structure may show the parent alone.

Legend:
[1] = system: [^3 H]-norepinephirine(NE) uptake; experiment: monoamine uptake inhibition, [^3 H]-norepinephirine (NE), crude synaptosomal preparations of cerebral cortex and hippocampus; assay type: biochemical; conditions: [^3 H]-NE 11 nM; 37° C; rat synaptosomes; read-out: Monoamine Reuptake Inhibitory Activity IC50, NE
Procedure: (§1) Effects of the compound of this invention on monoamine uptake were investigated using [^3 H]-norepinephirine(NE) and [3H]-serotonin (5-HT). Rats were sacrificed by decapitation. The cerebral cortex and hippocampus were removed and homogenized in 10-15 volumes (W/V) of an ice-cold medium containing 0.32M sucrose. Crude synaptosomal preparations (P2) were isolated after differential centrifugation at 1000×g for 10 min and 20,000×g for 30 min at 4° C. Synaptosomal membranes were suspended in Krebs-Ringer bicarbonate (KRB) solution (116 mM NaCl, 4.8 mM KCl, 1.3 mM CaCl2, 1.2 mM MgSO4, 1.2 mM NaH2 PO4, 25 mM NaHCO3, 0.1 mM EDTA-2Na, 11.1 mM D-glucose, 0.11 mM L-ascorbic acid, 0.01 mM pargyline). Synaptosomal membrane suspension (900 μl) was preincubated with the test compound dissolved in DMSO solution at 37° C. for 5 min. The reaction was initiated by addition of 100 μl of [^3 H]-NE (11 nM in final concentration) or [^3 H]-HT (10 nM in final concentration). Five minutes later, the reaction was stopped by the addition of 4 ml of ice-cold KRB and the reaction mixture was filtered through Whatman CF/B. Filters were washed twice with 4 ml of KRB and the radioactivity bound was counted with liquid scintillant. Imipramine was used as positive control.

[2] = system: [3H]-serotonin (5-HT) uptake; experiment: monoamine uptake inhibition, [3H]-serotonin (5-HT), crude synaptosomal preparations of cerebral cortex and hippocampus; assay type: biochemical; conditions: [^3 H]-HT 10 nM; 37° C; rat synaptosomes; read-out: Monoamine Reuptake Inhibitory Activity IC50, 5-HT
Procedure: as §1

[3] = molecular target: T1, Acetylcholinesterase (Rattus norvegicus, UniProt P37136); experiment: cholinesterase inhibitory activity using (acetyl-[^3 H])-acetylcholine, S1 fraction of rat cerebral cortex homogenate; assay type: biochemical, male Wistar rat; conditions: 30 min incubation
T1 construct: Using the S1 fraction of a male Wistar rat cerebral cortex homogenate as a source of cholinesterase; from tissue; host or cells: male Wistar rat cerebral cortex homogenate, S1 fraction
T1 sequence (P37136 32-614): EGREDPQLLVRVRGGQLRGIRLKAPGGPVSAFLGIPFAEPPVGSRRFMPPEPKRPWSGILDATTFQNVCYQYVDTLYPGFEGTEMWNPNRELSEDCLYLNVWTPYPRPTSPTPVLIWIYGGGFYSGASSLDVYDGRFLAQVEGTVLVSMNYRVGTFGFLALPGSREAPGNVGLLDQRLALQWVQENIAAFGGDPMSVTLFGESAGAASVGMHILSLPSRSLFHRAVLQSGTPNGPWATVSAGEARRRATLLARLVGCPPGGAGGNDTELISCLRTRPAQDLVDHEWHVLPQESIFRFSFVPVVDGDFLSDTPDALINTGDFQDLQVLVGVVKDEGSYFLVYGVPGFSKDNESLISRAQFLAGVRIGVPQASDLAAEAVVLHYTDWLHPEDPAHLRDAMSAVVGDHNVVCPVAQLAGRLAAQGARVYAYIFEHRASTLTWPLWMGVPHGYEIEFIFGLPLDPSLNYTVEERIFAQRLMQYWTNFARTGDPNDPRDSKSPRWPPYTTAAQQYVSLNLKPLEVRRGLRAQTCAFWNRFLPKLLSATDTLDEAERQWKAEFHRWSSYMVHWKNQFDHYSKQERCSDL
Procedure: The cholinesterase inhibitory activity of the compound of the present invention was tested, using (acetyl-[^3 H])-acetylcholine. Using the S1 fraction of a male Wistar rat cerebral cortex homogenate as a source of cholinesterase, (acetyl-[^3 H])-acetylcholine, as a substrate, and the test compound, as a sample, were incubated for 30 minutes. After the reaction was terminated, a toluene scintillator was added and the reaction mixture was shaken to migrate the [^3 H]-acetic acid resulting from the reaction to the toluene layer, where radioactivity was counted using a liquid scintillation counter to determine the cholinesterase inhibitory activity.
The sample's cholinesterase inhibitory activity was expressed by 50% inhibitory concentration (IC50).

SMILES	IC50 [1]	IC50 [2]	IC50 [3]
Cc1ccc(CN2CCN(CCC(=O)c3cc4c5c(c3)CCN5C(=O)CC4)CC2)cc1C [30-28]	2810 nM	61.5 nM	–
O=C(CCC1CCN(Cc2ccccc2)CC1)c1cc2c3c(c1)CCN3C(=O)CC2 [30-38]	–	–	0.18 nM
O=C(CCN1CCN(Cc2ccccc2)CC1)c1ccc2c(c1)CN(C(=O)c1ccccc1)Cc1ccccc1-2 [34-4]	456 nM	969 nM	–
COc1ccccc1CN1CCN(CCC(=O)c2cc3c4c(c2)CCN4C(=O)CC3)CC1 [30-32]	–	–	91.1 nM
O=C(CCN1CCN(Cc2cccc([N+](=O)[O-])c2)CC1)c1cc2c3c(c1)CCN3C(=O)CC2 [30-29]	–	–	29.3 nM
COc1ccccc1CN1CCC(CCC(=O)c2cc3c4c(c2)CCN4C(=O)CC3)CC1 [30-48]	–	–	17.1 nM
O=C(CCN1CCN(Cc2ccc(F)cc2)CC1)c1cc2c3c(c1)CCN3C(=O)CC2 [30-26]	–	–	4.4 nM
O=C(CCN1CCN(Cc2ccccc2)CC1)c1cc2c3c(c1)CCC(=O)N3CCC2 [17-6]	–	–	15.1 nM
CCC(=O)N1CC2CCCc3c(C(=O)CCC4CCN(Cc5ccccc5)CC4)ccc1c32 (stereo not drawn) [20-1]	–	–	182 nM
O=C(CCN1CCN(Cc2cccc([N+](=O)[O-])c2)CC1)c1cc2c3c(c1)CC(=O)N3CCC2 [30-35]	–	–	67.9 nM
Cc1ccccc1CN1CCN(CCC(=O)c2cc3c4c(c2)CC(=O)N4CCC3)CC1 [compound 23, 8-[3-[4-[(2-Methylphenyl)methyl]-1-piperazinyl]-1-oxopropyl]-5,6-dihydro-4H-pyroro[3,2,1-ij]quinolin-2(1H)-one dihydrochloride]	2430 nM	66.8 nM	61.4 nM
Cc1cccc(CN2CCN(CCC(=O)c3cc4c5c(c3)CC(=O)N5CCC4)CC2)c1 [30-1]	4600 nM	95.6 nM	28.7 nM
Cc1ccccc1CN1CCC(CCC(=O)c2cc3c4c(c2)CCN4C(=O)CC3)CC1 [30-45]	–	–	0.304 nM
O=C(CCN1CCN(Cc2ccccc2Cl)CC1)c1cc2c3c(c1)CC(=O)N3CCC2 [30-3]	–	–	10.9 nM
O=C(CCN1CCC(Cc2ccccc2)CC1)c1cc2c3c(c1)CC(=O)N3CCC2 [31-2]	73.8 nM	8.79 nM	–
CN(C)CCCN1c2ccccc2CCc2ccccc21 [Imipramine, reference compound]	1120 nM	63 nM	–
O=C(CCN1CCN(Cc2ccccc2)CC1)c1ccc2c3c1CCCC3CN2 (stereo not drawn) [compound 2, 1-(1,2,2a,3,4,5-Hexahydrobenz[cd]indol-6-yl)-3-[1-(phenylmethyl)piperazin-4-yl]-1-propanone trihydrochloride]	420 nM	594 nM	–
O=C(CCC1CCN(Cc2ccccc2)CC1)c1ccc2c3c1CCCC3CN2 (stereo not drawn) [compound 4, 1-(1,2,2a,3,4,5-Hexahydrobenz[cd]indol-6-yl)-3-[1-(phenylmethyl)piperidin-4-yl]-1-propanone dihydrochloride]	347 nM	601 nM	91.8 nM
O=CN1Cc2ccccc2-c2ccc(C(=O)CCN3CCC(Cc4ccccc4)CC3)cc2C1 [31-11]	515 nM	69.5 nM	–
O=C(CCN1CCN(Cc2ccccc2)CC1)c1ccc2c(c1)CNc1ccccc1O2 [32-3]	–	–	59 nM
N#Cc1ccccc1CN1CCC(CCC(=O)c2cc3c4c(c2)CCN4C(=O)CC3)CC1 [30-61]	–	–	15.6 nM
COc1ccc(CN2Cc3ccccc3-c3ccc(C(=O)CCN4CCN(Cc5ccccc5)CC4)cc3C2)cc1 [34-2]	–	–	20 nM
Cc1ccc(CN2CCC(CCC(=O)c3cc4c5c(c3)CCN5C(=O)CC4)CC2)cc1 [30-47]	–	–	19.5 nM

SMILES	IC50 [1]	IC50 [2]	IC50 [3]
CN1CC2CCCc3c(C(=O)CCC4CCN(Cc5ccccc5)CC4)ccc1c32 (stereo not drawn) [16-1]	–	–	154 nM
O=C(CCN1CCN(Cc2ccccc2F)CC1)c1cc2c3c(c1)CCN3C(=O)CC2 [30-24]	–	–	1.5 nM
Cc1cccc(CN2CCC(CCC(=O)c3cc4c5c(c3)CCN5C(=O)CC4)CC2)c1 [30-46]	–	–	0.2 nM
O=C(CCC1CCN(Cc2ccccc2Cl)CC1)c1cc2c3c(c1)CCN3C(=O)CC2 [30-42]	–	–	0.54 nM
O=C(CCN1CCN(Cc2cccc(F)c2)CC1)c1cc2c3c(c1)CCN3C(=O)CC2 [30-25]	1310 nM	11.7 nM	0.098 nM
O=C(CCC1CCN(Cc2cccc(F)c2)CC1)c1cc2c3c(c1)CCN3C(=O)CC2 [30-40]	–	–	0.092 nM
O=C(CCN1CCN(Cc2ccccc2)CC1)c1ccc2c(c1)CN(Cc1ccccc1)Cc1ccccc1-2 [34-1]	–	–	39.3 nM
O=C(CCC1CCN(Cc2ccc(O)cc2)CC1)c1cc2c3c(c1)CCN3C(=O)CC2 [30-60]	–	–	0.078 nM
O=C(CCN1CCN(Cc2ccccc2)CC1)c1cc2c3c(c1)CC(=O)N3CCC2 [17-2]	–	–	7.6 nM
COc1ccc(C(=O)N2Cc3ccccc3-c3ccc(C(=O)CCN4CCN(Cc5ccccc5)CC4)cc3C2)cc1 [34-5]	–	–	31.6 nM
O=C(CCN1CCC(Cc2ccccc2)CC1)c1ccc2c(c1)CN(C(=O)c1ccccc1)Cc1ccccc1-2 [34-8]	197 nM	363 nM	–
O=CN1Cc2cc(C(=O)CCN3CCN(Cc4ccccc4)CC3)ccc2Cc2ccccc21 [17-7]	–	–	33 nM
Cc1ccc(CN2CCN(CCC(=O)c3cc4c5c(c3)CC(=O)N5CCC4)CC2)cc1C [30-8]	643 nM	60.7 nM	–
O=C(CCN1CCN(Cc2ccccc2O)CC1)c1cc2c3c(c1)CC(=O)N3CCC2 [30-16]	–	–	5.8 nM
COc1ccccc1CN1CCN(CCC(=O)c2cc3c4c(c2)CC(=O)N4CCC3)CC1 [30-13]	–	–	130 nM
O=C(CCC1CCN(Cc2ccccc2O)CC1)c1cc2c3c(c1)CCN3C(=O)CC2 [30-58]	–	–	0.12 nM
O=CN1Cc2cc(C(=O)CCN3CCN(Cc4ccccc4)CC3)ccc2CCc2ccccc21 [17-10]	–	–	96.8 nM
O=C(CCN1CCN(Cc2ccccc2)CC1)c1ccc2c(c1)CNc1ccccc1C2 [32-2]	–	–	115 nM
O=C(CCN1CCN(Cc2ccc(F)cc2)CC1)c1cc2c3c(c1)CC(=O)N3CCC2 [30-12]	–	–	23.9 nM
Cc1ccccc1CN1CCN(CCC(=O)c2cc3c4c(c2)CCN4C(=O)CC3)CC1 [30-18]	–	–	24.9 nM
CC1CC(=O)N2CCc3cc(C(=O)CCN4CCN(Cc5ccccc5)CC4)cc1c32 (stereo not drawn) [17-4]	–	–	9.5 nM
CC(=O)N1Cc2ccccc2-c2ccc(C(=O)CCN3CCN(Cc4ccccc4)CC3)cc2C1 [34-3]	–	–	171 nM
O=C(CCC1CCN(Cc2ccc(F)cc2)CC1)c1cc2c3c(c1)CCN3C(=O)CC2 [30-41]	–	–	0.47 nM

SMILES	IC50 [1]	IC50 [2]	IC50 [3]
Cc1ccc(C)c(CN2CCC(CCC(=O)c3cc4c5c(c3)CCN5C(=O)CC4)CC2)c1 [30-56]	–	–	18.3 nM
O=C(CCN1CCN(Cc2ccc3c(c2)OCO3)CC1)c1cc2c3c(c1)CC(=O)N3CCC2 [31-1]	6180 nM	46.3 nM	–
CN1c2ccc(C(=O)CCC3CCN(Cc4ccccc4)CC3)cc2C2CCCCC21 (stereo not drawn) [37-4]	–	–	136 nM
O=C(CCN1CCN(Cc2cccc(Cl)c2)CC1)c1cc2c3c(c1)CC(=O)N3CCC2 [30-4]	–	–	43 nM
O=C(CCN1CCN(Cc2ccccc2)CC1)c1ccc2c(c1)C1CCCCC1N2 (stereo not drawn) [19-1]	328 nM	1670 nM	–
O=C(CCC1CCN(Cc2ccccc2)CC1)c1cc2c3c(c1)CC(=O)N3CCC2 [30-34]	–	–	0.5 nM
O=C(CCN1CCN(Cc2ccccc2)CC1)c1cc2c3c(c1)CC(=O)N3CCCC2 [17-3]	–	–	17.2 nM
O=C(CCC1CCN(Cc2ccccc2)CC1)c1ccc2c3c(cccc13)CN(Cc1ccccc1)C2 [37-2]	–	–	184 nM
O=C(CCC1CCN(Cc2ccc(Cl)cc2)CC1)c1cc2c3c(c1)CCN3C(=O)CC2 [30-44]	–	–	59.9 nM
O=C(CCC1CCN(Cc2cccc([N+](=O)[O-])c2)CC1)c1cc2c3c(c1)CCN3C(=O)CC2 [30-52]	–	–	0.36 nM
O=C(CCN1CCN(Cc2ccc([N+](=O)[O-])cc2)CC1)c1cc2c3c(c1)CC(=O)N3CCC2 [30-36]	7480 nM	46.8 nM	–
O=C(CCN1CCN(Cc2ccccc2F)CC1)c1cc2c3c(c1)CC(=O)N3CCC2 [30-10]	–	–	18.9 nM
O=C(CCC1CCN(Cc2ccccc2F)CC1)c1cc2c3c(c1)CCN3C(=O)CC2 [30-39]	–	–	0.5 nM
O=C(CCN1CCN(Cc2ccccc2)CC1)c1cc2c3c(c1)CCN3C(=O)CC2 [17-1]	–	–	3 nM
O=C(CCC1CCN(Cc2ccc([N+](=O)[O-])cc2)CC1)c1cc2c3c(c1)CCN3C(=O)CC2 [30-53]	–	–	25.4 nM
O=C(CCC1CCN(Cc2cccc(Cl)c2)CC1)c1cc2c3c(c1)CCN3C(=O)CC2 [30-43]	–	–	0.065 nM
O=C(CCC1CCN(Cc2cccc(O)c2)CC1)c1cc2c3c(c1)CCN3C(=O)CC2 [30-59]	–	–	1.12 nM
Cc1ccc(CN2CCC(CCC(=O)c3cc4c5c(c3)CCN5C(=O)CC4)CC2)c(C)c1 [30-54]	–	–	60.9 nM
O=C(CCN1CCN(Cc2cccc(F)c2)CC1)c1cc2c3c(c1)CC(=O)N3CCC2 [30-11]	–	–	16.9 nM
CCc1ccccc1CN1CCN(CCC(=O)c2cc3c4c(c2)CC(=O)N4CCC3)CC1 [30-6]	5960 nM	86.3 nM	–
O=CN1Cc2cc(C(=O)CCN3CCN(Cc4ccccc4)CC3)ccc2Oc2ccccc21 [17-8]	–	–	47 nM
